Measurements taken from patent US11178869B2, “Microbiocidal quinoline (thio)carboxamide derivatives” (priority 2017, dated 2021).
Read-outs that look alike come from different tables or passages of the source.

Assays:
[1] = system: Glomerella lagenarium (Colletotrichum lagenarium); experiment: Glomerella lagenarium (Colletotrichum lagenarium) / liquid culture (anthracnose); format: cell-based; settings: Colletotrichum orbiculare, read-out: disease control
[2] = system: Botryotinia fuckeliana (Botrytis cinerea); experiment: Botryotinia fuckeliana (Botrytis cinerea) / liquid culture (gray mould); format: cell-based; settings: 72 h, 200 ppm, compared to untreated control, growth inhibition photometrically 3-4 days after application, read-out: disease control
Fusarium culmorum [3] = experiment: microbe, parasite or virus in culture; format: cell-based; settings: read-out: disease control
[4] = system: Magnaporthe grisea (Pyricularia oryzae); experiment: microbe, parasite or virus in culture; format: cell-based; settings: read-out: control of Magnaporthe grisea
Fusarium culmorum [5] = experiment: whole plant or invertebrate; format: in vivo, Fusarium culmorum on wheat spikelets cv. Monsun; settings: in Triticum aestivum, 144 h, read-out: control of Fusarium culmorum
[6] = system: Monographella nivalis (Microdochium nivale); experiment: Monographella nivalis (Microdochium nivale) / liquid culture (foot rot cereals); format: cell-based; settings: 200 ppm, compared to untreated control, growth inhibition photometrically 4-5 days after application, read-out: disease control
[7] = 200 ppm, compared to untreated control, growth inhibition photometrically 3-4 days after application

C#CCC(C)(CC(C)C)NC(=O)c1cnc2c(F)cccc2c1 (centres unmarked) [Compound E-2, 8-fluoro-N-(1-isobutyl-1-methyl-but-3-ynyl)quinoline-3-carboxamide]
≥ 80%: inhibition of growth at 200 ppm [1, 7] | inhibition of growth at 200 ppm [2] | inhibition of growth at 200 ppm (Fusarium culmorum [3])

CCC(C)(C#Cc1ccccc1C)NC(=O)c1cc2cccc(F)c2nc1C (centres unmarked) [Compound F-14, N-[1-ethyl-1-methyl-3-(o-tolyl)prop-2-ynyl]-8-fluoro-2-methyl-quinoline-3-carboxamide]
≥ 80%: inhibition of growth at 200 ppm [1, 7] | inhibition of growth at 200 ppm [2] | inhibition of growth at 20 ppm [4] | inhibition of growth at 200 ppm (Fusarium culmorum [3]) | pest or weed control at 200 ppm (Fusarium culmorum [5])

CCC(C)(C#Cc1ccccc1)NC(=O)c1cc2cccc(F)c2nc1C (centres unmarked) [Compound F-16, N-(1-ethyl-1-methyl-3-phenyl-prop-2-ynyl)-8-fluoro-2-methyl-quinoline-3-carboxamide]
≥ 80%: inhibition of growth at 200 ppm [1, 7] | inhibition of growth at 200 ppm [2] | inhibition of growth at 20 ppm [4] | inhibition of growth at 200 ppm [6] | inhibition of growth at 200 ppm (Fusarium culmorum [3]) | pest or weed control at 200 ppm (Fusarium culmorum [5])

CC(C)(C#Cc1ccccc1F)NC(=O)c1cnc2c(F)cccc2c1 [Compound F-18, 8-fluoro-N-[3-(2-fluorophenyl)-1,1-dimethyl-prop-2-ynyl]quinoline-3-carboxamide]
≥ 80%: inhibition of growth at 200 ppm [1, 7] | inhibition of growth at 200 ppm [2] | inhibition of growth at 200 ppm [6] | inhibition of growth at 200 ppm (Fusarium culmorum [3])

Cc1ccc(C#N)cc1C#CC(C)(C)NC(=O)c1cnc2c(F)cccc2c1 [Compound F-19, N-[3-(5-cyano-2-methyl-phenyl)-1,1-dimethyl-prop-2-ynyl]-8-fluoro-quinoline-3-carboxamide]
≥ 80%: inhibition of growth at 200 ppm [1, 7] | inhibition of growth at 200 ppm [2] | inhibition of growth at 200 ppm [6] | inhibition of growth at 200 ppm (Fusarium culmorum [3])

CC(C)(C#Cc1ccc(F)c(F)c1)NC(=O)c1cnc2c(F)cccc2c1 [Compound F-20, N-[3-(3,4-difluorophenyl)-1,1-dimethyl-prop-2-ynyl]-8-fluoro-quinoline-3-carboxamide]
≥ 80%: inhibition of growth at 200 ppm [1, 7] | inhibition of growth at 200 ppm [2] | inhibition of growth at 200 ppm [6] | inhibition of growth at 200 ppm (Fusarium culmorum [3])

Cc1ccc(C)c(C#CC(C)(C)NC(=O)c2cnc3c(F)cccc3c2)c1 [Compound F-22, N-[3-(2,5-dimethylphenyl)-1,1-dimethyl-prop-2-ynyl]-8-fluoro-quinoline-3-carboxamide]
≥ 80%: inhibition of growth at 200 ppm [1, 7] | inhibition of growth at 200 ppm [2] | inhibition of growth at 200 ppm (Fusarium culmorum [3])

Cc1cccc(C#CC(C)(C)NC(=O)c2cnc3c(F)cccc3c2)c1C [Compound F-26, N-[3-(2,3-dimethylphenyl)-1,1-dimethyl-prop-2-ynyl]-8-fluoro-quinoline-3-carboxamide]
≥ 80%: inhibition of growth at 200 ppm [1, 7] | inhibition of growth at 200 ppm [2] | inhibition of growth at 200 ppm [6] | inhibition of growth at 200 ppm (Fusarium culmorum [3])

CC(C)(C#Cc1ccc(F)cc1)NC(=O)c1cnc2c(F)cccc2c1 [Compound F-27, 8-fluoro-N-[3-(4-fluorophenyl)-1,1-dimethyl-prop-2-ynyl]quinoline-3-carboxamide]
≥ 80%: inhibition of growth at 200 ppm [1, 7] | inhibition of growth at 200 ppm [2] | inhibition of growth at 200 ppm [6] | inhibition of growth at 200 ppm (Fusarium culmorum [3])

COc1ccc(C#CC(C)(C)NC(=O)c2cnc3c(F)cccc3c2)cc1 [Compound F-28, 8-fluoro-N-[3-(4-methoxyphenyl)-1,1-dimethyl-prop-2-ynyl]quinoline-3-carboxamide]
≥ 80%: inhibition of growth at 200 ppm [1, 7] | inhibition of growth at 200 ppm [2] | inhibition of growth at 200 ppm [6] | inhibition of growth at 200 ppm (Fusarium culmorum [3]) | pest or weed control at 200 ppm (Fusarium culmorum [5])

Cc1cc(C)cc(C#CC(C)(C)NC(=O)c2cnc3c(F)cccc3c2)c1 [Compound F-30, N-[3-(3,5-dimethylphenyl)-1,1-dimethyl-prop-2-ynyl]-8-fluoro-quinoline-3-carboxamide]
≥ 80%: inhibition of growth at 200 ppm [1, 7] | inhibition of growth at 200 ppm [2] | inhibition of growth at 200 ppm [6] | inhibition of growth at 200 ppm (Fusarium culmorum [3])

Cc1ccc(C#CC(C)(C)NC(=O)c2cnc3c(F)cccc3c2)cc1C [Compound F-32, N-[3-(3,4-dimethylphenyl)-1,1-dimethyl-prop-2-ynyl]-8-fluoro-quinoline-3-carboxamide]
≥ 80%: inhibition of growth at 200 ppm [1, 7] | inhibition of growth at 200 ppm [2] | inhibition of growth at 200 ppm [6] | inhibition of growth at 200 ppm (Fusarium culmorum [3])

Cc1ccc(C#CC(C)(C)NC(=O)c2cnc3c(F)cccc3c2)c(C)c1 [Compound F-33, N-[3-(2,4-dimethylphenyl)-1,1-dimethyl-prop-2-ynyl]-8-fluoro-quinoline-3-carboxamide]
≥ 80%: inhibition of growth at 200 ppm [1, 7] | inhibition of growth at 200 ppm [2] | inhibition of growth at 200 ppm [6] | inhibition of growth at 200 ppm (Fusarium culmorum [3])

Cc1cc(C#N)ccc1C#CC(C)(C)NC(=O)c1cnc2c(F)cccc2c1 [Compound F-34, N-[3-(4-cyano-2-methyl-phenyl)-1,1-dimethyl-prop-2-ynyl]-8-fluoro-quinoline-3-carboxamide]
≥ 80%: inhibition of growth at 200 ppm [2] | inhibition of growth at 200 ppm [6] | inhibition of growth at 200 ppm (Fusarium culmorum [3])

CC(C)(C#Cc1cccc(C#N)c1)NC(=O)c1cnc2c(F)cccc2c1 [Compound F-36, N-[3-(3-cyanophenyl)-1,1-dimethyl-prop-2-ynyl]-8-fluoro-quinoline-3-carboxamide]
≥ 80%: inhibition of growth at 200 ppm [2] | inhibition of growth at 200 ppm [6] | inhibition of growth at 200 ppm (Fusarium culmorum [3])

COc1ccccc1C#CC(C)(C)NC(=O)c1cnc2c(F)cccc2c1 [Compound F-37, 8-fluoro-N-[3-(2-methoxyphenyl)-1,1-dimethyl-prop-2-ynyl]quinoline-3-carboxamide]
≥ 80%: inhibition of growth at 200 ppm [1, 7] | inhibition of growth at 200 ppm [2] | inhibition of growth at 200 ppm [6] | inhibition of growth at 200 ppm (Fusarium culmorum [3])

COc1cc(C#CC(C)(C)NC(=O)c2cnc3c(F)cccc3c2)ccc1Cl [Compound F-38, N-[3-(4-chloro-3-methoxy-phenyl)-1,1-dimethyl-prop-2-ynyl]-8-fluoro-quinoline-3-carboxamide]
≥ 80%: inhibition of growth at 200 ppm [1, 7] | inhibition of growth at 200 ppm [2] | inhibition of growth at 200 ppm [6] | inhibition of growth at 200 ppm (Fusarium culmorum [3])

Cc1cccc(C#CC(C)(C)NC(=O)c2cnc3c(F)cccc3c2)c1 [Compound F-39, N-[1,1-dimethyl-3-(m-tolyl)prop-2-ynyl]-8-fluoro-quinoline-3-carboxamide]
≥ 80%: inhibition of growth at 200 ppm [1, 7] | inhibition of growth at 200 ppm [2] | inhibition of growth at 200 ppm [6] | inhibition of growth at 200 ppm (Fusarium culmorum [3]) | pest or weed control at 200 ppm (Fusarium culmorum [5])

CC(C)(C#Cc1cc(F)cc(F)c1)NC(=O)c1cnc2c(F)cccc2c1 [Compound F-40, N-[3-(3,5-difluorophenyl)-1,1-dimethyl-prop-2-ynyl]-8-fluoro-quinoline-3-carboxamide]
≥ 80%: inhibition of growth at 200 ppm [1, 7] | inhibition of growth at 200 ppm [2] | inhibition of growth at 200 ppm [6] | inhibition of growth at 200 ppm (Fusarium culmorum [3]) | pest or weed control at 200 ppm (Fusarium culmorum [5])

CC(C)(C#Cc1ccccc1C#N)NC(=O)c1cnc2c(F)cccc2c1 [Compound F-41, N-[3-(2-cyanophenyl)-1,1-dimethyl-prop-2-ynyl]-8-fluoro-quinoline-3-carboxamide]
≥ 80%: inhibition of growth at 200 ppm [1, 7] | inhibition of growth at 200 ppm [2] | inhibition of growth at 200 ppm [6] | inhibition of growth at 200 ppm (Fusarium culmorum [3])

CC(C)(C#Cc1ccc(C(F)(F)F)cc1)NC(=O)c1cnc2c(F)cccc2c1 [Compound F-42, N-[1,1-dimethyl-3-[4-(trifluoromethyl)phenyl]prop-2-ynyl]-8-fluoro-quinoline-3-carboxamide]
≥ 80%: inhibition of growth at 200 ppm [1, 7] | inhibition of growth at 200 ppm [2] | inhibition of growth at 200 ppm [6] | inhibition of growth at 200 ppm (Fusarium culmorum [3])

COc1ccc(C(F)(F)F)cc1C#CC(C)(C)NC(=O)c1cnc2c(F)cccc2c1 [Compound F-43, 8-fluoro-N-[3-[2-methoxy-5-(trifluoromethyl)phenyl]-1,1-dimethyl-prop-2-ynyl]quinoline-3-carboxamide]
≥ 80%: inhibition of growth at 200 ppm [1, 7] | inhibition of growth at 200 ppm [2] | inhibition of growth at 200 ppm (Fusarium culmorum [3])

Cc1ccc(F)c(C#CC(C)(C)NC(=O)c2cnc3c(F)cccc3c2)c1 [Compound F-45, 8-fluoro-N-[3-(2-fluoro-5-methyl-phenyl)-1,1-dimethyl-prop-2-ynyl]quinoline-3-carboxamide]
≥ 80%: inhibition of growth at 200 ppm [1, 7] | inhibition of growth at 200 ppm [2] | inhibition of growth at 200 ppm [6] | inhibition of growth at 200 ppm (Fusarium culmorum [3]) | pest or weed control at 200 ppm (Fusarium culmorum [5])

CC#CC(C)(C)NC(=O)c1cnc2c(F)cccc2c1 [Compound F-53, N-(1,1-dimethylbut-2-ynyl)-8-fluoro-quinoline-3-carboxamide]
≥ 80%: inhibition of growth at 200 ppm [1] | inhibition of growth at 200 ppm (Fusarium culmorum [3])

C[C@@](CC#CC1CC1)(CC(F)(F)F)NC(=O)c1cnc2c(F)cccc2c1 [Compound G-1, N-[(1R)-4-cyclopropyl-1-methyl-1-(2,2,2-trifluoroethyl)but-3-ynyl]-8-fluoro-quinoline-3-carboxamide]
≥ 80%: inhibition of growth at 200 ppm [2] | inhibition of growth at 200 ppm [6] | inhibition of growth at 200 ppm (Fusarium culmorum [3])

C[C@](CC#CC1CC1)(CC(F)(F)F)NC(=O)c1cnc2c(F)cccc2c1 [Compound G-2, N-[(1S)-4-cyclopropyl-1-methyl-1-(2,2,2-trifluoroethyl)but-3-ynyl]-8-fluoro-quinoline-3-carboxamide]
≥ 80%: inhibition of growth at 200 ppm [2] | inhibition of growth at 200 ppm (Fusarium culmorum [3])
